The text below walks through data of paper doi:10.1101/2021.01.04.425289v1 (biorxiv, 2021).

Starred links: 1 amine or outer side, 2 acyl side, 3 side chain; linkers in the order of their positions; H or OH if unused. Residues, ends and D or L forms follow the SMILES beside them. CO = O=C([*:1])[*:2]

This test concerns the target Furin (Homo sapiens, UniProt P09958). The experiment in a line: biochemical.

Sequence of Furin (P09958 whole entry): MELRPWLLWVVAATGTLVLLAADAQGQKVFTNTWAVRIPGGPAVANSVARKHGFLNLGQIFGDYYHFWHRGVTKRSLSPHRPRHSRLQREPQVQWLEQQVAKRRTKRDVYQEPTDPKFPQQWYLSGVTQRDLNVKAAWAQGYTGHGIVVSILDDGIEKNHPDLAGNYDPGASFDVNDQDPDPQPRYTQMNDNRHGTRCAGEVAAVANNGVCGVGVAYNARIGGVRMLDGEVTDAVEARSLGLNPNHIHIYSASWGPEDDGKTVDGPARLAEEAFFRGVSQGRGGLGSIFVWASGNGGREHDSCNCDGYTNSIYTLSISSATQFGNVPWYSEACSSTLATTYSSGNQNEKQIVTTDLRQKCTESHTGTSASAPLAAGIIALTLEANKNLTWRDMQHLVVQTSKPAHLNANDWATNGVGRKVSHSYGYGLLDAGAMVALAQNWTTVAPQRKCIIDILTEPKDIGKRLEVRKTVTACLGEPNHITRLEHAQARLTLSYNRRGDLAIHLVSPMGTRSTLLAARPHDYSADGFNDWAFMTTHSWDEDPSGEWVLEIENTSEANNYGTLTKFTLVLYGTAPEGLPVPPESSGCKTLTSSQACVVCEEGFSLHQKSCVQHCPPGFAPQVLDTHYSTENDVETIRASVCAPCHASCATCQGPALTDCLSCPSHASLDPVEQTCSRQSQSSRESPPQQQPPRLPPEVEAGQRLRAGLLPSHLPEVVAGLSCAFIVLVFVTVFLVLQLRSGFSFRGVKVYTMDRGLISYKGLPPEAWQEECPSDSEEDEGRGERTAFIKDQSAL

The IC50 is the concentration at which inhibition is half-maximal. Take `CN(C)C(=O)COC(=O)Cc1ccc(OC(=O)c2ccc(NC(=N)N)cc2)cc1` [Camostat]: the IC50 is above 10 µM.
With `CC(C)[C@H](NC(=O)[C@H](CCCNC(=N)N)NC(=O)N[C@@H](Cc1ccccc1)C(=O)O)C(=O)N[C@H](C=O)CCCNC(=N)N` [Antipain] ({Phe-CO}-Arg-Val-Arg-aldehyde) the figure was above 10 µM.
